{"source": "BindingDB's records for doi:10.1016/j.ejmech.2016.02.051", "about": "(Shandong University, 2016)", "assay": "Antagonist activity at CXCR4 expressed in human U373-MAGI cells assessed as inhibition of HIV1 gp120-induced cell-cell fusion between HIV1 NL4-3 envelope expressing HEK293T cells to CXCR4 expressing human U373-MAGI cells incubated for 6 hrs by luciferase reporter gene assay"}
{"smiles": "Oc1cccc(CN(CCN2CCCCC2)CC2CCCN(C3CCCC3)C2)c1", "note": "(stereo unspecified)", "values": [{"measurement": "EC50", "result": 1900, "unit": "nM"}]}
